Literature values in patent publication US20090130675A1, “Genes Involved in the Biosynthesis of Thiocoraline and Heterologous Production of Same” (PHARMA MAR, S.A., priority 2005, published 2009).

How the values were obtained:
[1] = system: cell lines of different types of solid tumors, such as melanoma, breast, non-microcytic lung and colon cancer; conditions: in vitro
Gram-positive bacteria = conditions: against Gram-positive bacteria
[2] = system: human carcinoma xenografts; conditions: in vivo, human carcinoma xenografts (Faircloth et al. 1997)

For Thiocoraline, the “capacity to inhibit the growth of cell lines” value [1] is listed as “inhibit the growth of cell lines”, the antibacterial activity (Gram-positive bacteria) is listed as “shows antibacterial activity” and the antitumor activity [2] is listed as “marked antitumor activity”.
